What was measured:
HDAC1 = HDAC1 (Homo sapiens (Human), UniProt Q13547); test: HDAC enzyme activity inhibition (in vitro), HDAC1 Fluorimetric Drug Discovery Assay Kit; assay type: biochemical; details: samples at 100, 1000 and 10000 nM; 37° C. 60 minutes; fluorescence Ex 390, Em 460
HDAC6 human recombinant = HDAC6 human recombinant (Homo sapiens (Human), UniProt Q9UBN7); test: HDAC enzyme activity inhibition (in vitro), HDAC6 assay; assay type: biochemical; details: samples at 0.1, 1, 10, 100 and 1000 nM; 37° C. 60 minutes; fluorescence Ex 390, Em 460
Chain of HDAC6 human recombinant (Q9UBN7 whole entry): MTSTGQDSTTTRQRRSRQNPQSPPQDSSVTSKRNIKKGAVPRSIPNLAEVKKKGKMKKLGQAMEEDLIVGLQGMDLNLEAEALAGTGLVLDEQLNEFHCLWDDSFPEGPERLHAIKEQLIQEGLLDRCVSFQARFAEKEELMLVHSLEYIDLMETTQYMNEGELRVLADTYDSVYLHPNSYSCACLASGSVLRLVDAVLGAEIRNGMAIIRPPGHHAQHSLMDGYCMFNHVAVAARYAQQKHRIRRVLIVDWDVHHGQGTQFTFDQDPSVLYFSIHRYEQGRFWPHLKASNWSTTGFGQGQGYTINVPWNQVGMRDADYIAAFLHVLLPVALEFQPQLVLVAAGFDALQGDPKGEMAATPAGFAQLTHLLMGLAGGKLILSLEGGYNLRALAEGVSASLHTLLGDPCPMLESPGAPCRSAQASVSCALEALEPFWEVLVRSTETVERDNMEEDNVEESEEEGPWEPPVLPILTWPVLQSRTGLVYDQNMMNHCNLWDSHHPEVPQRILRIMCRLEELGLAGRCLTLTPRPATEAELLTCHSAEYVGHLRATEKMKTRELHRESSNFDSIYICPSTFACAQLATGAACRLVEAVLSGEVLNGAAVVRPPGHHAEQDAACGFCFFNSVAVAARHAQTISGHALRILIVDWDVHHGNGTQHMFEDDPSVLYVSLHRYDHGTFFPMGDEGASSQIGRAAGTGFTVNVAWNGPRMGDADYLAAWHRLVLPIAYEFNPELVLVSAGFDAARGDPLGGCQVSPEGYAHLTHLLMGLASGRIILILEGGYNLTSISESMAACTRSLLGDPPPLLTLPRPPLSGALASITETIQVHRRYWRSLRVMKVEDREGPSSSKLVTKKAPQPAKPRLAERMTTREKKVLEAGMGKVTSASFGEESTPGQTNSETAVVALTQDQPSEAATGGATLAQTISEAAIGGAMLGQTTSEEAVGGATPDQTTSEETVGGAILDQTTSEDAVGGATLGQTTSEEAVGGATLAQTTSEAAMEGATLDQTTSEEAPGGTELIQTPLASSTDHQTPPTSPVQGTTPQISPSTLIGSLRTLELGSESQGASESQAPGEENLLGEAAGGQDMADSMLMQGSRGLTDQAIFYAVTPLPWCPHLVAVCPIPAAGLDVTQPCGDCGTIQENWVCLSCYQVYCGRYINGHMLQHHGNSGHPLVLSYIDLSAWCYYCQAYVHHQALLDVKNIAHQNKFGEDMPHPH

Chain of HDAC1 (Q13547 whole entry): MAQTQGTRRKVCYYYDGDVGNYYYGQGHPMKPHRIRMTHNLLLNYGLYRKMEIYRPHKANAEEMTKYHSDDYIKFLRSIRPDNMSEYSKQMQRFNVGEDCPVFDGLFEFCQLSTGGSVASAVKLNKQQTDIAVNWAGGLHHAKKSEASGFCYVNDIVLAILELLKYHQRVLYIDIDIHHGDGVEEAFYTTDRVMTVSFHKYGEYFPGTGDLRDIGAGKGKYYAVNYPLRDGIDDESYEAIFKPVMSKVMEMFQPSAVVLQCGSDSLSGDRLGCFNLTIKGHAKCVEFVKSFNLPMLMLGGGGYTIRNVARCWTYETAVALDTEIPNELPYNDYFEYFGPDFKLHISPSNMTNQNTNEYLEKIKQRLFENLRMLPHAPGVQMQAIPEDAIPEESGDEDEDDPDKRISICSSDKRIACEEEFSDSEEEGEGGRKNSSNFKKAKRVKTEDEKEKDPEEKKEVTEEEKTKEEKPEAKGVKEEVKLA

SMILES	IC50 (HDAC1) [nM]	IC50 (HDAC6 human recombinant) [nM]
O=c1c2ccccc2n(Cc2ccc(-c3nnc(C(F)F)o3)cn2)c(=O)n1CCc1ccccc1 [Compound 77, 1-((5-(5-(difluoromethyl)-1,3,4-oxadiazole-2-yl)pyridine-2-yl)methyl)-3-phenethylquinazoline-2,4(1H,3H)-dione]	> 10000	141
CC1(C)C(=O)N(Cc2ccc(-c3nnc(C(F)F)o3)cn2)C(=O)c2cc(C3CCN(C4CCOC4)CC3)ccc21 (centres unmarked) [Compound 146, 2-((5-(5-(difluoromethyl)-1,3,4-oxadiazole-2-yl)pyridine-2-yl)methyl)-4,4-dimethyl-7-(1-(tetrahydrofuran-3-yl)piperidine-4-yl)isoquinoline-1,3(2H,4H)-dione]	> 10000	58
CC1(C)C(=O)N(Cc2ccc(-c3nnc(C(F)F)o3)cn2)C(=O)c2ccc(N3C[C@@H]4C[C@H]3CN4S(C)(=O)=O)cc21 [Compound 58, 2-((5-(5-(difluoromethyl)-1,3,4-oxadiazole-2-yl)pyridine-2-yl)methyl)-4,4-dimethyl-6-((1S,4S)-5-(methylsulfonyl)-2,5-diazabicyclo[2.2.1]heptane-2-yl)isoquinoline-1,3(2H,4H)-dione]	> 10000	14
CC1(C)C(=O)N(Cc2ccc(-c3nnc(C(F)F)o3)cn2)C(=O)c2ccc(N3CCN(CC(F)(F)C(F)(F)C(F)(F)F)CC3)cc21 [Compound 140, 2-((5-(5-(difluoromethyl)-1,3,4-oxadiazole-2-yl)pyridine-2-yl)methyl)-6-(4-(2,2,3,3,4,4,4-heptafluorobutyl)piperazine-1-yl)-4,4-dimethylisoquinoline-1,3(2H,4H)-dione]	> 10000	535
COc1ccc(Cn2c(=O)n(Cc3ccc(-c4nnc(C(F)F)o4)cn3)c(=O)c3ccccc32)cc1 [Compound 13, 3-((5-(5-(difluoromethyl)-1,3,4-oxadiazole-2-yl)pyridine-2-yl)methyl)-1-(4-methoxybenzyl)quinazoline-2,4(1H,3H)-dione]	> 10000	225
CC1(C)C(=O)N(Cc2ccc(-c3nnc(C(F)F)o3)cn2)C(=O)c2c(N3CCOCC3)cccc21 [Compound 83, 2-((5-(5-(difluoromethyl)-1,3,4-oxadiazole-2-yl)pyridine-2-yl)methyl)-4,4-dimethyl-8-morpholinoisoquinoline-1,3(2H,4H)-dione]	> 10000	98

Now from value to molecule:

IC50 (HDAC1) [nM]	IC50 (HDAC6 human recombinant) [nM]	SMILES
> 10000	40	CC1(C)C(=O)N(Cc2ccc(-c3nnc(C(F)F)o3)cn2)C(=O)c2cc(N3CCOCC3)ccc21 [Compound 52, 2-((5-(5-(difluoromethyl)-1,3,4-oxadiazole-2-yl)pyridine-2-yl)methyl)-4,4-dimethyl-7-morpholinoisoquinoline-1,3(2H,4H)-dione]
> 10000	46	CNC(=O)C1CCN(c2ccc3c(c2)C(C)(C)C(=O)N(Cc2ccc(-c4nnc(C(F)F)o4)cn2)C3=O)CC1 [Compound 56, 1-(2-((5-(5-(difluoromethyl)-1,3,4-oxadiazole-2-yl)pyridine-2-yl)methyl)-4,4-dimethyl-1,3-dioxo-1,2,3,4-tetrahydroisoquinoline-6-yl)-N-methylpiperidine-4-carboxamide]
> 10000	32	CC1(C)C(=O)N(Cc2ccc(-c3nnc(C(F)F)o3)cn2)C(=O)c2cc(C3=CCS(=N)(=O)CC3)ccc21 (centres unmarked) [Compound 126, 2-((5-(5-(difluoromethyl)-1,3,4-oxadiazole-2-yl)pyridine-2-yl)methyl)-7-(1-imino-1-oxydo-1,2,3,6-tetrahydro-1λ^6-thiopyran-4-yl)-4,4-dimethylisoquinoline-1,3(2H,4H)-dione]
> 10000	21	Cn1c(=O)n(Cc2ccc(-c3nnc(C(F)F)o3)cn2)c(=O)c2cc(-c3ccoc3)ccc21 [Compound 88, 3-((5-(5-(difluoromethyl)-1,3,4-oxadiazole-2-yl)pyridine-2-yl)methyl)-6-(furan-3-yl)-1-methylquinazoline-2,4(1H,3H)-dione]

Reference: US12440484B2, “1,3,4-oxadiazole homophthalimide derivative compounds as histone deacetylase 6 inhibitor, and the pharmaceutical composition comprising the same” (Chong Kun Dang Pharmaceutical Corp., priority 2019, dated 2025)
